# Source: patent publication US6521635B1, “Inhibition of MXR transport by acridine derivatives” (priority 2000, dated 2003)
# Target: T1, MXR (S1-M1-80 cells) (Homo sapiens, UniProt Q9UNQ0, R482G)
# T1 construct: express high levels of a mitoxantrone transporter (Miyake et al. (1999) Cancer Res.59: 8-13); endogenous in cells; host or cells: S1-M1-80 (mitoxantrone-selected subline of S1 colon carcinoma cells)
# T1 sequence (Q9UNQ0 1-655 R482G): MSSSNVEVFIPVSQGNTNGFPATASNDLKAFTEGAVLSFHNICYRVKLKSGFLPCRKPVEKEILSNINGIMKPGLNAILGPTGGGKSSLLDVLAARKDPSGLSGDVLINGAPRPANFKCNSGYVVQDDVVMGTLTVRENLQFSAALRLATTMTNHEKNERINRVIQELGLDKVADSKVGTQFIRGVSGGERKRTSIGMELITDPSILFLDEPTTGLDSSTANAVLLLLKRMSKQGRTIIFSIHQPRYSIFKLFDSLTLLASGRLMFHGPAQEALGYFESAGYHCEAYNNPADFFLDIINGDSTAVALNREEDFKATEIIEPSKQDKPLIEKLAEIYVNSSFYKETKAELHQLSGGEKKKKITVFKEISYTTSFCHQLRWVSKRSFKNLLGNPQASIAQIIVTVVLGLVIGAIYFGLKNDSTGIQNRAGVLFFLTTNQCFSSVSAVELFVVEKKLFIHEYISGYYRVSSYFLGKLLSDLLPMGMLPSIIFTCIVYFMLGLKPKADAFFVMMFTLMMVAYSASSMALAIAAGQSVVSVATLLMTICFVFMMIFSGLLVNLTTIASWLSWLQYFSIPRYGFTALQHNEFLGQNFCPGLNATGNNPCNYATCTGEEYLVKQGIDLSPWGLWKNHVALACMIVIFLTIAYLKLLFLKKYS
# Assay: Rhodamine efflux assay (flow cytometry)
# Format: cell-based
# Details: S1-M1-80 cells
# Description: To provide confirmation, rhodamine efflux assays were performed. […] The results are depicted in FIG. 2.
compound,measurement,value
COc1cc2c(cc1OC)CN(CCc1ccc(NC(=O)c3cccc4c(=O)c5cccc(OC)c5[nH]c34)cc1)CC2 [GF120918],concentration at which an effect on rhodamine efflux was observed,1000 nM
